ChEMBL document CHEMBL1201862, “PubChem BioAssay data set” (2004)
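Cells were grown in 96-well plates and exposed to each compound for 48 hours at five concentrations; endpoints were interpolated linearly between bracketing concentrations, or set to the highest concentration if not reached. GI50: concentration for 50% inhibition of growth.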 Activity calls are given as the source filed them. Cut-off read from the data, not from the text of the source: active = GI50 up to about 1.1 µM and inactive = higher.

Assays:
Experiment in all cases: inhibition of tumour cell growth, NCI panel, 48 h
786-0 = system: 786-0
A549 = system: A549
ACHN = system: ACHN
BT-549 = system: BT-549
CAKI-1 = system: CAKI-1
CCRF-CEM = system: CCRF-CEM
COLO 205 = system: COLO 205
DU-145 = system: DU-145
EKVX = system: EKVX
HCC 2998 = system: HCC 2998
HCT-116 = system: HCT-116
HCT-15 = system: HCT-15
HL-60 = system: HL-60
HOP-62 = system: HOP-62
HOP-92 = system: HOP-92
HT-29 = system: HT-29
Hs-578T = system: Hs-578T
IGROV-1 = system: IGROV-1
K562 = system: K562
KM12 = system: KM12
LOX IMVI = system: LOX IMVI
M14 = system: M14
MCF7 = system: MCF7
MDA-MB-231 = system: MDA-MB-231
MDA-MB-435 = system: MDA-MB-435
MDA-N = system: MDA-N
MOLT-4 = system: MOLT-4
NCI-H23 = system: NCI-H23
NCI-H460 = system: NCI-H460
NCI-H522 = system: NCI-H522
NCI/ADR-RES = system: NCI/ADR-RES
OVCAR-3 = system: OVCAR-3
OVCAR-4 = system: OVCAR-4
OVCAR-8 = system: OVCAR-8
PC-3 = system: PC-3
RXF 393 = system: RXF 393
SF-268 = system: SF-268
SF-295 = system: SF-295
SF-539 = system: SF-539
SK-MEL-28 = system: SK-MEL-28
SK-MEL-5 = system: SK-MEL-5
SK-OV-3 = system: SK-OV-3
SN12C = system: SN12C
SNB-19 = system: SNB-19
SNB-75 = system: SNB-75
SR = system: SR
SW-620 = system: SW-620
T47D = system: T47D
TK-10 = system: TK-10
U-251 = system: U-251
UACC-257 = system: UACC-257
UACC-62 = system: UACC-62
UO-31 = system: UO-31
Malme-3M = system: Malme-3M
NCI-H226 = system: NCI-H226
OVCAR-5 = system: OVCAR-5
RPMI-8226 = system: RPMI-8226
SK-MEL-2 = system: SK-MEL-2

NC(=O)C(NC=O)c1ccccc1 (stereo unspecified)
GI50 (786-0): > 100 µM (inactive)
GI50 (A549): > 100 µM (inactive)
GI50 (ACHN): > 100 µM (inactive)
GI50 (BT-549): > 100 µM (inactive)
GI50 (CAKI-1): > 100 µM (inactive)
GI50 (CCRF-CEM): > 100 µM (inactive)
GI50 (COLO 205): > 100 µM (inactive)
GI50 (DU-145): > 100 µM (inactive)
GI50 (EKVX): > 100 µM (inactive)
GI50 (HCC 2998): > 100 µM (inactive)
GI50 (HCT-116): > 100 µM (inactive)
GI50 (HCT-15): > 100 µM
GI50 (HL-60): > 100 µM (inactive)
GI50 (HOP-62): > 100 µM (inactive)
GI50 (HOP-92): > 100 µM (inactive)
GI50 (HT-29): > 100 µM (inactive)
GI50 (Hs-578T): > 100 µM (inactive)
GI50 (IGROV-1): > 100 µM (inactive)
GI50 (K562): > 100 µM (inactive)
GI50 (KM12): > 100 µM (inactive)
GI50 (LOX IMVI): > 100 µM (inactive)
GI50 (M14): > 100 µM (inactive)
GI50 (MCF7): > 100 µM (inactive)
GI50 (MDA-MB-231): > 100 µM (inactive)
GI50 (MDA-MB-435): > 100 µM (inactive)
GI50 (MDA-N): > 100 µM (inactive)
GI50 (MOLT-4): > 100 µM (inactive)
GI50 (NCI-H23): > 100 µM (inactive)
GI50 (NCI-H460): > 100 µM (inactive)
GI50 (NCI-H522): > 100 µM (inactive)
GI50 (NCI/ADR-RES): > 100 µM (inactive)
GI50 (OVCAR-3): > 100 µM (inactive)
GI50 (OVCAR-4): > 100 µM (inactive)
GI50 (OVCAR-8): > 100 µM (inactive)
GI50 (PC-3): > 100 µM (inactive)
GI50 (RXF 393): > 100 µM (inactive)
GI50 (SF-268): > 100 µM (inactive)
GI50 (SF-295): > 100 µM (inactive)
GI50 (SF-539): > 100 µM (inactive)
GI50 (SK-MEL-28): > 100 µM (inactive)
GI50 (SK-MEL-5): > 100 µM (inactive)
GI50 (SK-OV-3): > 100 µM (inactive)
GI50 (SN12C): > 100 µM (inactive)
GI50 (SNB-19): > 100 µM (inactive)
GI50 (SNB-75): > 100 µM (inactive)
GI50 (SR): > 100 µM (inactive)
GI50 (SW-620): > 100 µM (inactive)
GI50 (T47D): > 100 µM (inactive)
GI50 (TK-10): > 100 µM (inactive)
GI50 (U-251): > 100 µM (inactive)
GI50 (UACC-257): > 100 µM (inactive)
GI50 (UACC-62): > 100 µM (inactive)
GI50 (UO-31): > 100 µM (inactive)

c1ccc2c(c1)CC1c3[nH]c4ccccc4c3CCN21 (stereo unspecified)
GI50 (786-0): > 10 µM (inactive)
GI50 (A549): > 10 µM (inactive)
GI50 (ACHN): > 10 µM (inactive)
GI50 (BT-549): > 10 µM (inactive)
GI50 (CAKI-1): > 10 µM (inactive)
GI50 (CCRF-CEM): > 10 µM (inactive)
GI50 (COLO 205): > 10 µM (inactive)
GI50 (DU-145): > 10 µM (inactive)
GI50 (EKVX): > 10 µM (inactive)
GI50 (HCC 2998): > 10 µM (inactive)
GI50 (HCT-116): > 10 µM (inactive)
GI50 (HCT-15): > 10 µM
GI50 (HL-60): > 10 µM (inactive)
GI50 (HOP-62): > 10 µM (inactive)
GI50 (HOP-92): > 10 µM (inactive)
GI50 (HT-29): > 10 µM (inactive)
GI50 (Hs-578T): > 10 µM (inactive)
GI50 (IGROV-1): > 10 µM (inactive)
GI50 (K562): > 10 µM (inactive)
GI50 (KM12): > 10 µM (inactive)
GI50 (LOX IMVI): > 10 µM (inactive)
GI50 (M14): > 10 µM (inactive)
GI50 (MCF7): > 10 µM (inactive)
GI50 (MDA-MB-231): > 10 µM (inactive)
GI50 (MDA-MB-435): > 10 µM (inactive)
GI50 (MDA-N): > 10 µM (inactive)
GI50 (MOLT-4): > 10 µM (inactive)
GI50 (Malme-3M): > 10 µM (inactive)
GI50 (NCI-H226): > 10 µM (inactive)
GI50 (NCI-H23): > 10 µM (inactive)
GI50 (NCI-H460): > 10 µM (inactive)
GI50 (NCI-H522): > 10 µM (inactive)
GI50 (NCI/ADR-RES): > 10 µM (inactive)
GI50 (OVCAR-3): > 10 µM (inactive)
GI50 (OVCAR-4): > 10 µM (inactive)
GI50 (OVCAR-5): > 10 µM (inactive)
GI50 (OVCAR-8): > 10 µM (inactive)
GI50 (PC-3): > 10 µM (inactive)
GI50 (RPMI-8226): > 10 µM (inactive)
GI50 (RXF 393): > 10 µM (inactive)
GI50 (SF-268): > 10 µM (inactive)
GI50 (SF-295): > 10 µM (inactive)
GI50 (SF-539): > 10 µM (inactive)
GI50 (SK-MEL-28): > 10 µM (inactive)
GI50 (SK-MEL-2): > 10 µM (inactive)
GI50 (SK-MEL-5): > 10 µM (inactive)
GI50 (SK-OV-3): > 10 µM (inactive)
GI50 (SN12C): > 10 µM (inactive)
GI50 (SNB-19): > 10 µM (inactive)
GI50 (SNB-75): > 10 µM (inactive)
GI50 (SR): > 10 µM (inactive)
GI50 (SW-620): > 10 µM (inactive)
GI50 (T47D): > 10 µM (inactive)
GI50 (TK-10): > 10 µM (inactive)
GI50 (U-251): > 10 µM (inactive)
GI50 (UACC-257): > 10 µM (inactive)
GI50 (UACC-62): > 10 µM (inactive)
GI50 (UO-31): > 10 µM (inactive)
